Data taken from US12274681B2, “Compositions and methods for reducing skin fat” (Purdue Research Foundation, priority 2016, dated 2025).

What was measured:
[1] = test system: murine 3T3-L1 preadipocytes; assay: Lipid accumulation in differentiating adipocytes, Oil Red O staining and spectrometric quantification; type: cell-based
Description: Avasimibe solution was prepared by dissolving in dimethyl sulfoxide (DMSO). At day 6, preadipocytes and avasimibe-treated differentiated adipocytes were subjected to Oil Red 0 staining to visualize accumulated intracellular lipids. Oil Red 0 stained lipids were then extracted for spectrometric quantification of lipids. Intracellular lipids were decreased in a dose-dependent manner by up to 60% (FIG. 3A and FIG. 3B).

[2] = test system: high fat diet-fed C57BL/6J obese and diabetic mice; assay: High fat diet-induced obese and diabetic mouse model; type: in vivo; settings: for anti-diabetes treatment / anti-obesity treatment in a mouse model of obesity: summary statement
ACAT2 [3] = molecular target: ACAT2 (Homo sapiens, UniProt O75908); settings: cited from earlier work
ACAT2 (Homo sapiens, UniProt O75908), sequence (O75908 whole entry): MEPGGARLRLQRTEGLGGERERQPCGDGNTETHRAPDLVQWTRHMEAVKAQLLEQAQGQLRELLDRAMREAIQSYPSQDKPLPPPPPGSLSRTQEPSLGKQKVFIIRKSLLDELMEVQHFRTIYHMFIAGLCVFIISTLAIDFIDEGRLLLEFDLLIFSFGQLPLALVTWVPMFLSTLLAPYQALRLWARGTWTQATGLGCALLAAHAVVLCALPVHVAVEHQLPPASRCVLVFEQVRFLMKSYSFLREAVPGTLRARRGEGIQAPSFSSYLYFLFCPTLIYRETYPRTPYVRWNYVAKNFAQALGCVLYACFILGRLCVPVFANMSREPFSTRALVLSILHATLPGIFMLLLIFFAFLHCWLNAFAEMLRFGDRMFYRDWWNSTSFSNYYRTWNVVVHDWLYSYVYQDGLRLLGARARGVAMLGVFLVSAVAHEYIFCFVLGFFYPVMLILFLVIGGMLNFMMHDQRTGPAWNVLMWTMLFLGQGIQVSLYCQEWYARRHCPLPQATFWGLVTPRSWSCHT

[4] = cited from earlier work
ACAT1 [5] = molecular target: T1, ACAT1 (Homo sapiens, UniProt P35610); settings: cited from earlier work
T1 sequence (P35610 1-550): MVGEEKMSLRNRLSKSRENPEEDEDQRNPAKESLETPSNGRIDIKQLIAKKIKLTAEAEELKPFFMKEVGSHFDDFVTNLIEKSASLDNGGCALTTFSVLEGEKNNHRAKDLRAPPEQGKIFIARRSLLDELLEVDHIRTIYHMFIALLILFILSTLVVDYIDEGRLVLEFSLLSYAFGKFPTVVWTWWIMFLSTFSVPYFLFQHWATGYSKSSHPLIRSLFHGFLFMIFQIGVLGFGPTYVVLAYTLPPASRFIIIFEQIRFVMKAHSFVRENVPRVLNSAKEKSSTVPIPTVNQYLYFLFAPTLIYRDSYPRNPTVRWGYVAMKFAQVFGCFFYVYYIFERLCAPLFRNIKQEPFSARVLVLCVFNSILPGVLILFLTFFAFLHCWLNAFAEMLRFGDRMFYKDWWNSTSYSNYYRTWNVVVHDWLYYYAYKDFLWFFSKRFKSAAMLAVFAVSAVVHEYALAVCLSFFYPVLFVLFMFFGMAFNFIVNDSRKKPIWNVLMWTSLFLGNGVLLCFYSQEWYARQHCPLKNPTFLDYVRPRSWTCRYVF

adipocytes [6] = assay: De novo fatty acid synthesis, glucose-d7 with stimulated Raman scattering (SRS) microscopy; type: cell-based; settings: SRS imaging
Excerpt: Using deuterium labeled glucose-d7, the effect of avasimibe on de novo fatty acid synthesis in adipocytes treated with or without avasimibe was examined. Glucose-d7 incorporated fatty acids were visualized by stimulated Raman scattering (SRS) microscopy.

SREBP1 = assay: Western blot of SREBP1 in adipocytes; type: cell-based
Description: Because SREBP1 plays a key role in de novo fatty acids and TG synthesis and the data in FIG. 6 show a potential inhibitory role of avasimibe in suppression of SREBP1-downstream genes involved in fatty acid and TG synthesis, the ability of avasimibe treatment to alter SREBP1 protein expression and de novo fatty acid synthesis in adipocytes was tested.

[7] = test system: differentiated 3T3-L1 preadipocytes; assay: Real-time PCR of lipid synthesis and cholesterol uptake genes in adipocytes; type: cell-based, murine
Description: To characterize the effect of avasimibe treatment on mRNA levels of genes involved in lipid metabolism and adipocyte function, differentiated 3T3-L1 preadipocytes in the presence or absence of avasimibe (20 μM) for 6 days were subjected to real-time PCR assay for the analysis of expression of genes involved in synthesis of fatty acids and TGs such as PPARγ, sterol regulatory element binding protein 1c (SREBP1c), MGAT1, DGAT2, FAS and SCD-1.
(§1) Previous studies reported an adipogenesis-dependent increase in cholesterol accumulation in adipocytes. Similarly, adipogenesis was associated with elevated level free cholesterol with little change in CE level.

cytochrome P450 (CYP450) = settings: Sahi, et al. 2004; cited from earlier work
adipocytes [8] = assay: Cholesterol and cholesterol ester accumulation in adipocytes during adipogenesis; type: cell-based
Excerpt: as §1

[9] = test system: high-fat diet-induced obesity mouse model; assay: Pair-feeding study in high-fat diet-induced obesity mouse model; type: in vivo, mice
Excerpt: To do this, mice were pair-fed with the amount of food consumed by avasimibe-administrated mice for 8 days.

mature adipocytes = assay: Lipid accumulation by Coherent Anti-Stokes Raman Scattering (CARS) microscopy; type: cell-based, murine
ACAT = assay: 25-NBD cholesterol-based ACAT assay in adipocytes; type: cell-based
Excerpt: as §1

[10] = mouse, in vivo, ip, 20 mg/kg
Excerpt: Tissue- and isoform-specific regulation of ACATs has been proposed to be therapeutic strategy for cholesterol dysregulated diseases, such as atherosclerosis. However, the therapeutic role of ACATs in obesity has never been explored.

3T3-L1 adipocytes = assay: Proteomic analysis of adipocytes by LC MS/MS; type: cell-based, Mus musculus; settings: 10 μM
Description: 3T3-L1 preadipocytes were induced to differentiate into mature adipocytes with the same culture condition as described elsewhere. […] Avasimibe or DMSO was replaced freshly every 48 h. Each condition was cultured in triplicate. On day 6, adipocytes were washed with 1×PBS and scraped off the culture dishes. Adipocyte cell pellets were collected after centrifugation and subsequently digested with trypsin (Sigma-Aldrich, St. Louis MO, USA) at the Ratio of 1:50 (μg/μg) Trypsin to Protein. The tryptic peptides after trypsin digestion were separated on a nano LC system (1100 Series LC, Agilent Technologies, Santa Clara, CA) as described previously (D'Aquila, et al. 2015). Briefly, peptides were concentrated with Agilent 300SB-C18 enrichment column and separated with C18 reversed phase ZORBAX 300SB-C18 column. High resolution hybrid ion trap mass spectrometer LTQ-Orbitrap LX (Thermo Fisher Scientific, Waltham MA, USA) was employed to identify the peptides in the data-dependent positive acquisition mode. These experiments were done in Bindley Bioscience Center. We used the MaxQuant computational proteomics platform version 1.5.3.17 (Cox and Mann, 2008) to analyze the results from LC MS/MS analysis. The Mus musculus (24754 entries) sequence from UNIPROT retrieved on Sep. 1, 2015 and a common contaminants database were used as our reference databases. MaxQuant was set with parameters as follows: minimum peptides length was set to seven amino acids, and “Match between runs” interval was set to one minute; The FASTA databases were randomized and 1% of protein false discovery rate was allowed; With trypsin digestion, two missed cleavages were accepted; Three modifications per peptide were allowed, including one fixed modification as “Iodoethanol” and variable modifications as “Oxidation (M)” and “Acetyl (Protein N-term)”; Initial precursor was set to 0.07 and fragment mass tolerance set to 0.02 Da; Data were analyzed with “Label-free quantification” (LFQ) checked. The MaxQuant results were used in in-house script to remove all the common contaminant proteins and to calculate the average LFQ intensity values for the biological replicates and log transform [log2(x)]. The missing values were left blank unless indicated. A two tailed student t-test was performed on the LFQ intensity.

ACAT1 [11] = assay: Lentivirus-mediated ACAT1 knockdown in adipocytes (Oil Red O, real-time PCR); type: cell-based, mouse
Description: The direct role of ACAT1 on synthesis of fatty acids and TGs in adipocytes by lentivirus-mediated ACAT1 knockdown using its specific shRNA was tested.

ACAT2 [12] = assay: ACAT2 knockdown in adipocytes (Oil Red O, real-time PCR); type: cell-based, mouse
[13] = daily i.p. 20 mg/kg, about 2-week

CCCCCCCCCCC(C)(C)C(=O)Nc1c(OC)cc(OC)cc1OC [CI-976, 2,2-Dimethyl-N-(2,4,6-trimethoxyphenyl) dodecanamide]
lipid accumulation (Oil Red O) ([1]; 0, 5, 15 and 20 μM for 6 days): decrease in lipid accumulation | anti-diabetes treatment [2]: highly effective | anti-obesity treatment in a mouse model of obesity [2]: highly effective | IC50 (ACAT2 [3]): < 1000 nM

CC(C)c1cc(C(C)C)c(CC(=O)NS(=O)(=O)Oc2c(C(C)C)cccc2C(C)C)c(C(C)C)c1 [avasimibe]
safety when administered to rats, dogs, and humans ([4]; in vivo): generally considered safe | hypercholesterolemia ([4]; oral): effectively lowered | effect on body weight, food intake and insulin resistance ([4]; orally administrated): no effect | IC50 (ACAT1 [5]): 10000 nM | LD accumulation and glucose-d7 signal in LDs (de novo fatty acid synthesis) (adipocytes [6]): reduced level | level of 125 kDa inactive precursor form of SREBP1 (SREBP1): elevated levels | decrease of intracellular lipids (Oil Red O) ([1]; avasimibe 0, 1, 5, and 20 μM for 6 days, dose-dependent): up to 60% | mRNA levels of genes involved in lipid synthesis (PPARγ, SREBP1c, MGAT1, DGAT2, FAS, SCD-1) ([7]; 20 μM for 6 days): marked decrease | mRNA levels of cholesterol uptake genes SR-BI and CD-36 ([7]; vs control adipocytes): marked decrease | HOMA-IR values ([2]; 2-week administration): improved | blood glucose ([2]; 2-week administration): marked reduction | glucose tolerance ([2]; 2-week administration): improved glucose tolerance | insulin levels ([2]; 2-week administration): marked reduction | decrease in food intake ([2]; daily i.p. 20 mg/kg): approximately 50% | energy expenditure ([2]; daily i.p. 20 mg/kg): reduced energy expenditure | reduction or suppression in total body weight gain ([2]; daily i.p. 20 mg/kg body weight, about 2-week): about 25% | white adipose tissue (inguinal, epididymal, retroperitoneal) weight [2, 13]: significant loss | whole body fat mass [2, 13]: significant loss | circulating leptin level ([2]; mouse, in vivo): markedly suppressed | serum CE ([2]; mouse, in vivo): decrease | serum TG ([2]; mouse, in vivo): decrease | serum free cholesterol ([2]; mouse, in vivo): decrease | anti-diabetes treatment [2]: highly effective | anti-obesity treatment in a mouse model of obesity [2]: highly effective | respiratory exchange ratio ([2]; vs control mice): reduced respiratory exchange ratio | IC50 (ACAT2 [3]): 2500 nM | inhibition of cytochrome P450 (CYP450) (cytochrome P450 (CYP450)): known to inhibit | CE accumulation in adipocytes (adipocytes [8]): complete inhibition | cholesterol level in adipocytes (adipocytes [8]): significantly reduced level | blood glucose of pair-fed group relative to avasimibe-treated mice ([9]; 8 days): didn't reach to the level found from avasimibe-treated mice | fecal energy content ([9]; 8 days): little change | fecal excretion and fecal energy excretion ([9]; figure legend FIG. 23C, 23D): suppressed | lipid accumulation by CARS microscopy (mature adipocytes): inhibited lipid accumulation was confirmed | ACAT activity (fluorescence-labeled CE accumulation) (ACAT): inhibited the ACAT activity | liver toxicity by alanine transaminase (ALT) assay [10]: no noticeable liver toxicity | Acyl-CoA dehydrogenase protein level reduction (3T3-L1 adipocytes): 56% | Acyl-CoA synthetase long-chain family member 1 protein level reduction (3T3-L1 adipocytes): 86% | FAS protein level (3T3-L1 adipocytes): only identified in the control group | acetyl-CoA acyltransferase 1 protein level reduction (3T3-L1 adipocytes): 61% | adiponectin protein level reduction (3T3-L1 adipocytes): 84% | carnitine O-acetyltransferase protein level (3T3-L1 adipocytes): only identified in the control group | cytochrome B5 Reductase 3 and superoxide dismutase 1 protein levels (3T3-L1 adipocytes): not altered significantly | cytochrome B5 Type A protein level reduction (3T3-L1 adipocytes): 67% | enoyl CoA hydratase short chain 1 protein level reduction (3T3-L1 adipocytes): 64% | fatty acid binding protein 4 protein level reduction (3T3-L1 adipocytes): 64% | hydroxyacyl-CoA dehydrogenase protein level reduction (3T3-L1 adipocytes): 64% | hydroxysteroid (17-13) dehydrogenase 4 protein level reduction (3T3-L1 adipocytes): 38% | sterol carrier protein 2 downregulation (3T3-L1 adipocytes): 36%

ACAT1 shRNA: mouse ACAT1 shRNA sequence (SEQ ID NO:5), lentivirus-mediated ACAT1 knockdown (CCGGCCAACCAGAGACUAAACAUAUCUCGAGAUAUGUUUAGUCUCUGGUUGGUUUUUUG; listed as Mus musculus)
suppression of lipid accumulation vs control ShRNA adipocytes (Oil Red O) (ACAT1 [11]; ACAT1 knockdown): up to 40% | mRNA levels of genes involved in lipid synthesis (ACAT1 [11]; ACAT1 knockdown, real-time PCR): marked decrease | ACAT2 expression level (ACAT1 [11]; ACAT1 shRNA): no influence

ACAT2 shRNA: mouse ACAT2 shRNA sequence (SEQ ID NO:6), ACAT2 knockdown (CCGGUGCGGUGGUUCAUGAGUAUAUCUCGAGAUAUACUCAUGAACCACCGCAUUUUUUG; listed as Mus musculus)
mRNA levels of genes involved in TG synthesis (ACAT2 [12]): dramatic reduction | suppression of lipid accumulation vs control ShRNA adipocytes (Oil Red O) (ACAT2 [12]): up to 55%
